Measurements from ChEMBL document CHEMBL4007467, “Effects of 6-paradol, an unsaturated ketone from gingers, on cytochrome P450-mediated drug metabolism” (Bioorg Med Chem Lett, 2017).

Assays:
Type in all cases: ADME
CYP1A2 = target: T1, CYP1A2 (Homo sapiens, UniProt P05177); assay: Inhibition of CYP1A2 in human liver microsomes assessed as enzyme-mediated metabolite formation at 0.1 uM using phenacetin as substrate incubated for 5 mins followed by NADPH addition measured after 30 mins by LC-MS/MS analysis relative to control; set-up: scale not given: the % may be the effect or the level left; conditions: probe phenacetin, read-out: Activity
T1 sequence (P05177 whole entry): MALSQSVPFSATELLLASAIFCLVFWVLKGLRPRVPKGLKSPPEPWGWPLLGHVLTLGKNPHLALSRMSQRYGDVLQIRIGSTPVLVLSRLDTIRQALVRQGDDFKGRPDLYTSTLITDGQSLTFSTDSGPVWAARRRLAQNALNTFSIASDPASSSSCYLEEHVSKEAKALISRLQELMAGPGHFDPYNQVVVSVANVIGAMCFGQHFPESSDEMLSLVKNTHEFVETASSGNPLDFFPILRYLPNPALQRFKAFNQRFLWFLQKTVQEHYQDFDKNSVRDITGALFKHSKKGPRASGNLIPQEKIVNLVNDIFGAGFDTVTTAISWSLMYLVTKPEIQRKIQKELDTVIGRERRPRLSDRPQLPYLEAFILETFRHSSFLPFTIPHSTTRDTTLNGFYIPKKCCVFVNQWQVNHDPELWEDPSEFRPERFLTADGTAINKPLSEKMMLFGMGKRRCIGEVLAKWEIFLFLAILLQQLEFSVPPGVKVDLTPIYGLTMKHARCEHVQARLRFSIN

CYP2A6 [1] = target: T2, CYP2A6 (Homo sapiens, UniProt P11509); assay: Inhibition of CYP2A6 in human liver microsomes assessed as enzyme-mediated metabolite formation at 0.3 uM using coumarin as substrate incubated for 5 mins followed by NADPH addition measured after 30 mins by LC-MS/MS analysis relative to control; set-up: scale not given: the % may be the effect or the level left; conditions: probe coumarin, read-out: Activity
T2 sequence (P11509 whole entry): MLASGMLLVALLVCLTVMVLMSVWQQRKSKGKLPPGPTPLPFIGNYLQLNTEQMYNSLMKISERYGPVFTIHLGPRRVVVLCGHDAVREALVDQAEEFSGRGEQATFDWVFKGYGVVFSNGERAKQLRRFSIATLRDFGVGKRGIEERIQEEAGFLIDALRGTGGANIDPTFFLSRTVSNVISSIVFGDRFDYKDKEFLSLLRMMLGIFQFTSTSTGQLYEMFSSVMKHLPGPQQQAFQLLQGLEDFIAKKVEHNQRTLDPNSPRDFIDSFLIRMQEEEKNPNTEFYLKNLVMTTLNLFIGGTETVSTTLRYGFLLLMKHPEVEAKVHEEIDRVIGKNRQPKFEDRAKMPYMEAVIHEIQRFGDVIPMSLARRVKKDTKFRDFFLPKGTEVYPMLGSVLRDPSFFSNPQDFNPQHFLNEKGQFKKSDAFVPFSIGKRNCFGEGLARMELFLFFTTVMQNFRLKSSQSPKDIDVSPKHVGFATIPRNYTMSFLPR

CYP2C9 = CYP2C9 (Homo sapiens, UniProt P11712); assay: Inhibition of CYP2C9 in human liver microsomes assessed as enzyme-mediated metabolite formation at 10 uM using diclofenac as substrate incubated for 5 mins followed by NADPH addition measured after 30 mins by LC-MS/MS analysis relative to control; set-up: scale not given: the % may be the effect or the level left; conditions: probe diclofenac, read-out: Activity
Sequence of CYP2C9 (P11712 whole entry): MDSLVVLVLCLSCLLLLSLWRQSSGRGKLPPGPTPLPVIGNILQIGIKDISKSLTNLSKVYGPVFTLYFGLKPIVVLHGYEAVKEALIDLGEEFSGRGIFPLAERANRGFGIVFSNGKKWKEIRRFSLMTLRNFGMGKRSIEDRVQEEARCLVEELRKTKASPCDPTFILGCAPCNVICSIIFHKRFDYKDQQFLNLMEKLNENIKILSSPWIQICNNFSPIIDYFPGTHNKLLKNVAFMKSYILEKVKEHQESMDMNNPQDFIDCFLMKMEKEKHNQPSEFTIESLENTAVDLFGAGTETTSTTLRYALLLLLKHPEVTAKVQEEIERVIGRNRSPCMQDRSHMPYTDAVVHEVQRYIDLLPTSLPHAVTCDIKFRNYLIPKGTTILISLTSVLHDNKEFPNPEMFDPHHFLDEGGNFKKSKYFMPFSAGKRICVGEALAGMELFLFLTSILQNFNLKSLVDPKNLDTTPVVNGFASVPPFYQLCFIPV

Cytochrome P450 2C9 [2] = target: T3, Cytochrome P450 2C9 (Homo sapiens, UniProt P11712); assay: Inhibition of CYP2C9 in human liver microsomes assessed as enzyme-mediated metabolite formation using diclofenac as substrate incubated for 5 mins followed by NADPH addition measured after 30 mins by LC-MS/MS analysis
T3 sequence (P11712 whole entry): as above

CYP3A4 [3] = target: T4, CYP3A4 (Homo sapiens, UniProt P08684); assay: Inhibition of CYP3A4 in human liver microsomes assessed as enzyme-mediated metabolite formation at 3 uM using testosterone as substrate incubated for 5 mins followed by NADPH addition measured after 30 mins by LC-MS/MS analysis relative to control; set-up: scale not given: the % may be the effect or the level left; conditions: probe testosterone, read-out: Activity
T4 sequence (P08684 whole entry): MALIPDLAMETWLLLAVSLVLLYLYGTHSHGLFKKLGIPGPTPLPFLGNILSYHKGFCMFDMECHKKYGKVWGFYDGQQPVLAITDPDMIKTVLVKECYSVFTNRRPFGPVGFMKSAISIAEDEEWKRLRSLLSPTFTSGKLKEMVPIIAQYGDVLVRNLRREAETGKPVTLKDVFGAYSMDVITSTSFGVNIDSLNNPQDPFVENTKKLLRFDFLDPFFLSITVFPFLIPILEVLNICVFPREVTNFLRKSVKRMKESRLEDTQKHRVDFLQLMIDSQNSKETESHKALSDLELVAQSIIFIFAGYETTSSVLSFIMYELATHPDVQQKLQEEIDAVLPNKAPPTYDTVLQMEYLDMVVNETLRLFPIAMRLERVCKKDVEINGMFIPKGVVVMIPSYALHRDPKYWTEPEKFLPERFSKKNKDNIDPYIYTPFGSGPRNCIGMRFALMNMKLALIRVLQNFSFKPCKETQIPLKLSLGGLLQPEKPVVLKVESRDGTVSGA

Cytochrome P450 3A4 = Cytochrome P450 3A4 (Homo sapiens, UniProt P08684); assay: Inhibition of CYP3A4 in human liver microsomes assessed as enzyme-mediated metabolite formation using testosterone as substrate incubated for 5 mins followed by NADPH addition measured after 30 mins by LC-MS/MS analysis
Sequence of Cytochrome P450 3A4 (P08684 whole entry): as above

CYP2A6 [4] = target: T2, CYP2A6; assay: Inhibition of CYP2A6 in human liver microsomes assessed as enzyme-mediated metabolite formation at 3 uM using coumarin as substrate preincubated for 20 mins followed by substrate addition measured after 30 mins in presence of NADPH by LC-MS/MS analysis relative to control; set-up: scale not given: the % may be the effect or the level left; conditions: probe coumarin, read-out: Activity
CYP2B6 = target: T5, CYP2B6 (Homo sapiens, UniProt P20813); assay: Inhibition of CYP2B6 in human liver microsomes assessed as enzyme-mediated metabolite formation at 0.3 uM using bupropion as substrate preincubated for 20 mins followed by substrate addition measured after 30 mins in presence of NADPH by LC-MS/MS analysis relative to control; set-up: scale not given: the % may be the effect or the level left; conditions: probe bupropion, read-out: Activity
T5 sequence (P20813 whole entry): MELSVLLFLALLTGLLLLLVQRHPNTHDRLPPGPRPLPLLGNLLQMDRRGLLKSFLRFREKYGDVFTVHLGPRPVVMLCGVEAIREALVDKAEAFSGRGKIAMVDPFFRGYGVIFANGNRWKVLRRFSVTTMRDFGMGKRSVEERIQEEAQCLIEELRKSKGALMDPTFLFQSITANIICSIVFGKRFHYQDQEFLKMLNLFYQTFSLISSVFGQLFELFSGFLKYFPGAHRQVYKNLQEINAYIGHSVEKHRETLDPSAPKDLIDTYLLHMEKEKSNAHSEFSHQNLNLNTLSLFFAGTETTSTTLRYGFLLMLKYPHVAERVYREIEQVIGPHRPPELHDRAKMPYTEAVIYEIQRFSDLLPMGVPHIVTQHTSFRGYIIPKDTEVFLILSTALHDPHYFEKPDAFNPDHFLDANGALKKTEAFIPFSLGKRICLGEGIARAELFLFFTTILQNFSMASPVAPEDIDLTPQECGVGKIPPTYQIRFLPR

CYP2D6 [5] = target: T6, CYP2D6 (Homo sapiens, UniProt P10635); assay: Inhibition of CYP2D6 in human liver microsomes assessed as enzyme-mediated metabolite formation at 0.1 uM using dextromethorphan as substrate preincubated for 20 mins followed by substrate addition measured after 30 mins in presence of NADPH by LC-MS/MS analysis relative to control; set-up: scale not given: the % may be the effect or the level left; conditions: probe dextromethorphan, read-out: Activity
T6 sequence (P10635 whole entry): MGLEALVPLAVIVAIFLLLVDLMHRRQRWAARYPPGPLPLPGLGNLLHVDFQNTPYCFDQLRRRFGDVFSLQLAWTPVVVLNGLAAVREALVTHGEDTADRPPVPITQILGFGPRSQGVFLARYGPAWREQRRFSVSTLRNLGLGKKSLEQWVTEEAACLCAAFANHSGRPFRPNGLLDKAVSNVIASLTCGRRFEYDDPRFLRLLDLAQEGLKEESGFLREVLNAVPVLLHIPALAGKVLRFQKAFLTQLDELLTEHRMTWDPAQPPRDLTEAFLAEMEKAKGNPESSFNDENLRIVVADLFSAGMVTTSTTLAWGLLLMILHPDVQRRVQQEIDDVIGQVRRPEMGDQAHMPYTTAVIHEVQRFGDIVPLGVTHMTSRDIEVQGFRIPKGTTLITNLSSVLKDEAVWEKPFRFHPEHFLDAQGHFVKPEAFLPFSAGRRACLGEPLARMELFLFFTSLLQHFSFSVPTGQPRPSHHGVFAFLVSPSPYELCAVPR

CYP2D6 [6] = target: T6, CYP2D6; assay: Inhibition of CYP2D6 in human liver microsomes assessed as enzyme-mediated metabolite formation at 3 uM using dextromethorphan as substrate preincubated for 20 mins followed by substrate addition measured after 30 mins in presence of NADPH by LC-MS/MS analysis relative to control; set-up: scale not given: the % may be the effect or the level left; conditions: probe dextromethorphan, read-out: Activity
CYP3A4 [7] = target: T4, CYP3A4; assay: Inhibition of CYP3A4 in human liver microsomes assessed as enzyme-mediated metabolite formation at 0.3 uM using testosterone as substrate preincubated for 20 mins followed by substrate addition measured after 30 mins in presence of NADPH by LC-MS/MS analysis relative to control; set-up: scale not given: the % may be the effect or the level left; conditions: probe testosterone, read-out: Activity
Cytochrome P450 2C9 [8] = target: T3, Cytochrome P450 2C9; assay: Inhibition of human CYP2C9 using diclofenac as substrate incubated for 5 mins followed by NADPH addition measured after 30 mins by LC-MS/MS analysis

In the case of `CCCCCCCC(=O)CCc1ccc(O)c(OC)c1`, the activity at 0.5 h, 0.1 µM (CYP1A2) is reported as 100%, the activity at 0.5 h, 0.3 µM (CYP2A6 [1]) is reported as 83.8% and the activity at 0.5 h, 10 µM (CYP2C9) is reported as 52.3%. For the same molecule, the IC50 (Cytochrome P450 2C9 [2]) was 13.6 µM, the activity at 0.5 h, 3 µM (CYP3A4 [3]) was 63.3% and the IC50 (Cytochrome P450 3A4) was 30 µM. It also gave an activity at 0.5 h, 3 µM (CYP2A6 [4]) of 104%, an activity at 0.5 h, 0.3 µM (CYP2B6) of 81.3% and an activity at 0.5 h, 0.1 µM (CYP2D6 [5]) of 89.5%. For the same molecule, the activity at 0.5 h, 3 µM (CYP2D6 [6]) was 103%, the activity at 0.5 h, 0.3 µM (CYP3A4 [7]) was 87.4% and the IC50 (Cytochrome P450 2C9 [8]) was 10.5 µM. The “inhibition (INH)” value (Cytochrome P450 2C9 [8]; human, 0.5 h) was “Dose-dependent effect”.
